Reference: patent US11214803B2, “Modulators of YAP1 expression” (Ionis Pharmaceuticals, Inc., priority 2019, dated 2022)
Strand notation (5' to 3'): a small letter for the sugar, then the base; units joined by * are phosphorothioate-linked, units joined directly phosphodiester-linked; [ ] holds rarer units or linkages, { } end groups; capitals alone tell only the bases. e = 2'-O-(2-methoxyethyl) (MOE); k = constrained ethyl (cEt); [5mC] = 5-methylcytosine; d = 2'-deoxy (DNA); m = 2'-O-methyl

System: Yap1 mRNA
Experiment: Antisense inhibition of human Yap1 in SNU-449 cells by modified oligonucleotides, single dose (Example 5, RTS36584)
Format: cell-based
Conditions: for YAP1 (% UTC): SNU-449 cells, 10,000 cells per well, RTS36584
Procedure, shortened: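 Values are % of untreated control: Yap1 mRNA by quantitative RT-PCR (RTS36584), normalized to RIBOGREEN total RNA. Oligonucleotides were dosed at 2,000 nM, free uptake, in SNU-449 cells, with roughly 48 h exposure before RNA isolation.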

[1] = Table 41, free uptake, 2,000 nM modified oligonucleotide, approximately 48 hours, normalized to RIBOGREEN, Yap1 mRNA relative to untreated control cells
[2] = Table 46, Yap1 mRNA as percent of untreated control, SNU-449 cells, single dose
[3] = Table 42 (separate experiment), free uptake, 2,000 nM modified oligonucleotide, approximately 48 hours, normalized to RIBOGREEN, Yap1 mRNA relative to untreated control cells
[4] = Yap1 mRNA, percent of untreated control, modified oligonucleotides targeting SEQ ID NO: 1 and 2, Table 47
[5] = Table 49, Yap1 mRNA level relative to untreated control, modified oligonucleotides targeting SEQ ID NO.: 1 and 2
[6] = Table 48, Yap1 mRNA level relative to untreated control, modified oligonucleotides targeting SEQ ID NO.: 1 and 2

1198792 (antisense kT*eT*kT*dA*dA*dA*dG*dT*dG*dT*dA*dT*eG*eT*k[5mC]*kA) [Compound 1198792]
YAP1 (% UTC) [1]: 48 % UTC

1198848 (kA*kT*dT*dT*dA*dG*dG*dA*dT*dG*d[5mC]*kA*eT*kG*eG*kT; antisense) [Compound 1198848]
YAP1 (% UT) [2]: 47 % UT

1198216 (kT*kA*dT*dA*dA*d[5mC]*dT*dG*dG*dG*d[5mC]*eA*eA*eA*kT*kT; antisense) [Compound 1198216]
YAP1 (% UTC) (Table 43 experiment, free uptake, 2,000 nM, approximately 48 hours, Yap1 mRNA normalized to RIBOGREEN, relative to untreated control cells): 89 % UTC

1198239 (kA*kG*dG*dA*dT*dG*d[5mC]*dA*dT*dG*dG*eT*eT*eT*kT*kT) [Compound 1198239]
YAP1 (% UTC) [3]: 39 % UTC

1096369 (antisense kG*kT*kG*d[5mC]*dT*dT*dT*dG*dG*dA*dA*dG*dA*kT*k[5mC]*kT) [Compound 1096369]
YAP1 (% UT) [4]: 45 % UT

1198651 (kT*kT*dA*d[5mC]*dA*dT*dT*dA*dG*dG*dA*dA*k[5mC]*eA*kA*eG; antisense) [Compound 1198651]
YAP1 (% UTC) [1]: 94 % UTC

1198864 (kA*kT*dA*dT*dT*dG*d[5mC]*dA*dA*dT*d[5mC]*kT*eG*kT*e[5mC]*kT; antisense) [Compound 1198864]
YAP1 (% UT) [2]: 56 % UT

1198208 (kA*kG*dA*dG*dT*dA*dT*dG*dT*dG*dG*e[5mC]*eA*eA*kT*kA; antisense) [Compound 1198208]
YAP1 (% UTC) [3]: 25 % UTC

1198542 (antisense kT*kG*kT*d[5mC]*dT*d[5mC]*dA*dT*dG*d[5mC]*d[5mC]*dT*kT*kA*kT*eA) [Compound 1198542]
YAP1 (% UT) [5]: 23 % UT

1200857 (kA*kG*kT*dG*dT*mA*dT*dG*dT*d[5mC]*dA*dG*dA*kA*kG*kA; antisense) [Compound 1200857]
YAP1 (% UT) (Table 52, Yap1 mRNA, modified oligonucleotides targeting SEQ ID NO: 1 and 2): 4 % UT

1198687 (antisense kA*kT*dT*dG*d[5mC]*dA*dA*dT*d[5mC]*dT*dG*dT*k[5mC]*eT*kG*eA) [Compound 1198687]
YAP1 (% UTC) [1]: 55 % UTC

1198566 (antisense kT*kT*kT*dT*dA*d[5mC]*dA*dT*dT*dA*dG*dG*kA*kA*k[5mC]*eA) [Compound 1198566]
YAP1 (% UT) [5]: 83 % UT

1198346 (kT*kA*kA*dT*dA*dT*dT*dG*d[5mC]*dA*dA*dT*k[5mC]*eT*kG*eT; antisense) [Compound 1198346]
YAP1 (% UT) [6]: 40 % UT

1197206 (antisense kA*kT*kA*dT*dT*dG*d[5mC]*dA*dA*dT*d[5mC]*dT*dG*kT*k[5mC]*kT) [Compound 1197206]
YAP1 (% UT) [4]: 63 % UT

1198784 (antisense kT*eA*kT*dG*dT*dA*dA*dT*dA*dT*dT*dG*e[5mC]*eA*kA*kT) [Compound 1198784]
YAP1 (% UTC) (Table 40 (separate experiment), free uptake, 2,000 nM oligonucleotide, approx. 48 hours, normalized to RIBOGREEN, Yap1 mRNA relative to untreated control): 94 % UTC

1197217 (antisense kT*kT*kA*dA*dA*dG*dT*dG*dT*dA*dT*dG*dT*k[5mC]*kA*kG) [Compound 1197217]
YAP1 (% UT) [6]: 8 % UT

1198695 (antisense kT*kT*dT*dA*dT*dG*dT*dA*dA*dT*dA*dT*kT*eG*k[5mC]*eA) [Compound 1198695]
YAP1 (% UTC) [3]: 75 % UTC

1198699 (kA*kA*dA*dG*dT*dG*dT*dA*dT*dG*dT*d[5mC]*kA*eG*kA*eA; antisense) [Compound 1198699]
YAP1 (% UTC) [3]: 30 % UTC

1198624 (kA*k[5mC]*kT*dA*dA*dG*dT*dA*dA*dG*dG*dT*kT*kT*k[5mC]*e[5mC]; antisense) [Compound 1198624]
YAP1 (% UT) (Table 50, Yap1 mRNA remaining as percent of untreated control (UT), SNU-449 cells, single dose): 20 % UT

1198357 (kT*kT*kA*dA*dA*dG*dT*dG*dT*dA*dT*dG*kT*e[5mC]*kA*eG; antisense) [Compound 1198357]
YAP1 (% UT) [5]: 21 % UT

1198861 (CAACTCTTATATGGTT; chemistry not fully specified) [Compound 1198861]
YAP1 (% UT) [4]: 100 % UT

1198538 (kA*k[5mC]*dT*dA*dA*dG*dT*dA*dA*dG*dG*eT*kT*eT*k[5mC]*e[5mC]; antisense) [Compound 1198538]
YAP1 (% UTC) (Table 44 experiment, free uptake, 2,000 nM, approximately 48 hours, Yap1 mRNA normalized to RIBOGREEN, relative to untreated control cells): 29 % UTC
